In publication PMC9068870, “Modulation of Morphine Analgesia, Antinociceptive Tolerance, and Mu-Opioid Receptor Binding by the Cannabinoid CB2 Receptor Agonist O-1966” (Frontiers in Pharmacology, 2022):

Columns and labels:
[1] = molecular target: T1, rat mu-opioid receptor (rMOR) (Rattus norvegicus, UniProt P33535); experiment: […]GTPγS binding, CHO-rMOR membranes; format: biochemical; conditions: O-1966 10 min before 0.5 µM morphine; 10 µM GDP, 50 mM HEPES, 100 mM NaCl, 5 mM MgCl2, 30 °C, 1 h; negative allosteric mode suggested only
T1 construct: gene Oprm1; stably expressed in CHO cells (CHO-rMOR); cell membranes
T1 sequence (P33535 whole entry): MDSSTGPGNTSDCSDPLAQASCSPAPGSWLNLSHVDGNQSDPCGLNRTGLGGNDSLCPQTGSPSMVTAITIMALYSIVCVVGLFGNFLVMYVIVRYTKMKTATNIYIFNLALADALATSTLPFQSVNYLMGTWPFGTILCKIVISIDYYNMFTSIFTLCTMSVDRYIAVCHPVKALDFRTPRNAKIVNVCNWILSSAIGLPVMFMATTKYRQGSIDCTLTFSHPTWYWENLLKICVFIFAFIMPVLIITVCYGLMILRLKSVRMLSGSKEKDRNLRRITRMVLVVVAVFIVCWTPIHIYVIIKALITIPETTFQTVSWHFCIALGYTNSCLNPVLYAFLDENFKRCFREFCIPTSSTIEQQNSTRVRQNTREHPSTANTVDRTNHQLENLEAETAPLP

[2] = molecular target: T1, rat mu-opioid receptor (rMOR); experiment: competition with [3H]DAMGO, filtration, CHO-rMOR membranes; format: binding

With CCCCCCC(C)(C)c1cc(OC)c(C2(O)CCCC(C)C2)c(OC)c1 (centres unmarked) [O-1966] the “% reduction of morphine response at 10 μM” value [1] was 20% and the Ki [2] was 3.04 µM.
